Source: patent US10246426B2, “Triazole compounds as T-type calcium channel blockers” (IDORSIA PHARMACEUTICALS LTD, priority 2014, dated 2019)

Target: Cav3.2 (Homo sapiens, UniProt O95180)
Experiment: Calcium flux FLIPR assay, HEK293 cells recombinantly expressing Cav3.2
Type: cell-based
Conditions: Cav3.2-channel, Ca2+ entry stimulated by 10 mM CaCl2
Method in brief: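 Fluo-4-loaded HEK293 cells stably expressing Cav3.2, seeded overnight at 37 °C; compounds diluted in TEAC buffer (pH 7.2) and preincubated 3 min before Ca2+ entry triggered with CaCl2 at 10 mM final. Area under FLIPR fluorescence trace fitted sigmoidally; IC50 relative to vehicle signal.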

Chain of Cav3.2 (O95180 whole entry, looked up): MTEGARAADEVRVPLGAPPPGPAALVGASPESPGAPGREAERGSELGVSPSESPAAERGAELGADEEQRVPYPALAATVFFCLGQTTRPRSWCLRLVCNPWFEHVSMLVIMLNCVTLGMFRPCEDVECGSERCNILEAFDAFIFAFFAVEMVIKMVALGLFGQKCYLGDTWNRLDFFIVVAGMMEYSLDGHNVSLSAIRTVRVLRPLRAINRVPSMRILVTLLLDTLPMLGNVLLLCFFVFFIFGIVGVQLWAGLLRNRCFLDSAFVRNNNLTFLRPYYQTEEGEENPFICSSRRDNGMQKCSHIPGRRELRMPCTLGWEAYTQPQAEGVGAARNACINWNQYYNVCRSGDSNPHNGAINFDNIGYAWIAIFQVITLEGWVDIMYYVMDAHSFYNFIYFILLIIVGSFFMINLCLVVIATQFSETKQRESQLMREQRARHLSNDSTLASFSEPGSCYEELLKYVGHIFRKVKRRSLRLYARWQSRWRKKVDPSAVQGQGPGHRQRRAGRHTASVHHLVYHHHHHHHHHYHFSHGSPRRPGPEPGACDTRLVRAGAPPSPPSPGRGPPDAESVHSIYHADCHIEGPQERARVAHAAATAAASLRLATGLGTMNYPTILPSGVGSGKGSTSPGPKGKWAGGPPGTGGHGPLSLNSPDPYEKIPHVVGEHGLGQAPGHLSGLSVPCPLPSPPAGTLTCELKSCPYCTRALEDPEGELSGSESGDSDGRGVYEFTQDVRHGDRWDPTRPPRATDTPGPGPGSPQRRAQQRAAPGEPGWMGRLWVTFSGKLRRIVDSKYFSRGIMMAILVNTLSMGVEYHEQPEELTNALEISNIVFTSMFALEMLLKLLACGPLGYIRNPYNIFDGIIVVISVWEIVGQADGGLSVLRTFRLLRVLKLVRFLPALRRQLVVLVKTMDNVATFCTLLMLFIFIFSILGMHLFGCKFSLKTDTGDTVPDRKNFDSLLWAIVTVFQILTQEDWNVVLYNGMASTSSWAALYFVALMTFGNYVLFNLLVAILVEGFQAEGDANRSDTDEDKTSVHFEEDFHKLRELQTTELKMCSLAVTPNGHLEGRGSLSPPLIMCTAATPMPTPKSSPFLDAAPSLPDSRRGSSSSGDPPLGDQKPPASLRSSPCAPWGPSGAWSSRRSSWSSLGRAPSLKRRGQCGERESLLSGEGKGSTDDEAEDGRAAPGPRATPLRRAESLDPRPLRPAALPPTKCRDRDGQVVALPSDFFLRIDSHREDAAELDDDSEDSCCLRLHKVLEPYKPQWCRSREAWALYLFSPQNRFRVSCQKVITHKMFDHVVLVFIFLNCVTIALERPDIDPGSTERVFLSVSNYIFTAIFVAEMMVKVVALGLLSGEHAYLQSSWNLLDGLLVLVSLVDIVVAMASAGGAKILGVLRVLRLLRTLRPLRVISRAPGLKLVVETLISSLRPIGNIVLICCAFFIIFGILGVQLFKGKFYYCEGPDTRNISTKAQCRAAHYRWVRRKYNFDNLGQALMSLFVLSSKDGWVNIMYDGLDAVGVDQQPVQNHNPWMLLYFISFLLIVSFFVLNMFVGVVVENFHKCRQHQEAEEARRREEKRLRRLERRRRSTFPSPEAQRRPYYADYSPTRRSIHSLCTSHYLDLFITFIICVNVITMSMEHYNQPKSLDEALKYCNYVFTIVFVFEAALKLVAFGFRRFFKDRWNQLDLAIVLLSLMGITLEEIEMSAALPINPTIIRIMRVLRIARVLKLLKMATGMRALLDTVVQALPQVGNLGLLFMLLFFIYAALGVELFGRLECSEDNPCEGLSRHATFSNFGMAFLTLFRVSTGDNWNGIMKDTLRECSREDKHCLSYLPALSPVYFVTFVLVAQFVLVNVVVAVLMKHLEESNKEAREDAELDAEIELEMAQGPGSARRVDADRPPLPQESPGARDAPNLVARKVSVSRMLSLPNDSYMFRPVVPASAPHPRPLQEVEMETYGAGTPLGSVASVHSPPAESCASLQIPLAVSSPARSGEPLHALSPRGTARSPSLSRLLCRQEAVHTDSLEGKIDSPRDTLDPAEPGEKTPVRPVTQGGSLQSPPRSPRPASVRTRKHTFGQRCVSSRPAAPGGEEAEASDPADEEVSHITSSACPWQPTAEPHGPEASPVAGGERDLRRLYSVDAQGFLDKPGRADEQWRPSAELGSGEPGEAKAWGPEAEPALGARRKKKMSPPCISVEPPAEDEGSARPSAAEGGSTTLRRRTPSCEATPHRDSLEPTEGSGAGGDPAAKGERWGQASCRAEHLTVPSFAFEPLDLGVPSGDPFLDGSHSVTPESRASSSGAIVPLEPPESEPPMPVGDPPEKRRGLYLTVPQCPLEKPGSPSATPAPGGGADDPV

IC50 [µM] | SMILES
0.096 | O=C(Cc1ccc(C2(C(F)(F)F)CC2)cc1)Nc1cnn(Cc2ccc(OC(F)(F)F)c(F)c2)n1 [Example 188, N-[2-(3-Fluoro-4-trifluoromethoxy-benzyl)-2H-[1,2,3]triazol-4-yl]-2-[4-(1-trifluoromethyl-cyclopropyl)-phenyl]-acetamide]
0.19 | COc1cc(Cn2ncc(NC(=O)Cc3ccc(OCC4(C)COC4)cc3)n2)ccc1F [Example 112, N-[2-(4-Fluoro-3-methoxy-benzyl)-2H-[1,2,3]triazol-4-yl]-2-[4-(3-methyl-oxetan-3-ylmethoxy)-phenyl]-acetamide]
0.12 | Cn1ncc2cc(CC(=O)Nc3cnn(Cc4ccc(C#N)c(F)c4)n3)ccc21 [Example 76, N-[2-(4-Cyano-3-fluoro-benzyl)-2H-[1,2,3]triazol-4-yl]-2-(1-methyl-1H-indazol-5-yl)-acetamide]
0.06 | COc1ccc(Cn2ncc(NC(=O)Cc3ccc(N4CCC(F)(F)C4)nc3)n2)cc1 [Example 59]
0.07 | COc1ccc(Cn2ncc(NC(=O)Cc3ccc(N4CCCC4)nc3)n2)cc1F [Example 156, N-[2-(3-Fluoro-4-methoxy-benzyl)-2H-[1,2,3]triazol-4-yl]-2-(6-pyrrolidin-1-yl-pyridin-3-yl)-acetamide]
0.056 | COc1c(F)cc(Cn2ncc(NC(=O)Cc3ccc(OCC4(C)COC4)cc3)n2)cc1F [Example 144, N-[2-(3,5-Difluoro-4-methoxy-benzyl)-2H-[1,2,3]triazol-4-yl]-2-[4-(3-methyl-oxetan-3-ylmethoxy)-phenyl]-acetamide]
0.0097 | CN1C(=O)C(C)(C)c2cc(CC(=O)Nc3cnn(Cc4ccc(F)c(F)c4)n3)ccc21 [Example 19, N-[2-(3,4-Difluoro-benzyl)-2H-[1,2,3]triazol-4-yl]-2-(1,3,3-trimethyl-2-oxo-2,3-dihydro-1H-indol-5-yl)-acetamide]
0.02 | Cc1cn(C)c2cc(CC(=O)Nc3cnn(Cc4ccc(C#N)c(F)c4)n3)ccc12 [Example 105, N-[2-(4-Cyano-3-fluoro-benzyl)-2H-[1,2,3]triazol-4-yl]-2-(1,3-dimethyl-1H-indol-6-yl)-acetamide]
0.6 | COc1ccc(Cn2ncc(NC(=O)Cc3ccc(N4CCCC4)nc3)n2)cc1OC [Example 51, N-[2-(3,4-Dimethoxy-benzyl)-2H-[1,2,3]triazol-4-yl]-2-(6-pyrrolidin-1-yl-pyridin-3-yl)-acetamide]
0.021 | CC(C)c1ccc(CC(=O)Nc2cnn(Cc3ccc(F)cc3)n2)cc1 [Example 1, N-[2-(4-Fluoro-benzyl)-2H-[1,2,3]triazol4-yl]-2-(4-isopropyl-phenyl)-acetamide]
0.063 | N#Cc1ccc(Cn2ncc(NC(=O)Cc3ccc(C4(C(F)(F)F)CC4)cc3)n2)cc1 [Example 195, N-[2-(4-Cyano-benzyl)-2H-[1,2,3]triazol-4-yl]-2-[4-(1-trifluoromethyl-cyclopropyl)-phenyl]-acetamide]
0.044 | COc1ccc(Cn2ncc(NC(=O)Cc3ccc(C(C)C)cc3)n2)cc1F [Example 154, N-[2-(3-Fluoro-4-methoxy-benzyl)-2H-[1,2,3]triazol-4-yl]-2-(4-isopropyl-phenyl)-acetamide]
0.017 | Cn1ncc2ccc(CC(=O)Nc3cnn(Cc4ccc(OC(F)(F)F)c(F)c4)n3)cc21 [Example 185, N-[2-(3-Fluoro-4-trifluoromethoxy-benzyl)-2H-[1,2,3]triazol-4-yl]-2-(1-methyl-1H-indazol-6-yl)-acetamide]
0.25 | Cc1ccc(Cn2ncc(NC(=O)Cc3ccc(C4(C(F)(F)F)CC4)cc3)n2)cc1C#N [Example 226, N-[2-(3-Cyano-4-methyl-benzyl)-2H-[1,2,3]triazol-4-yl]-2-[4-(1-trifluoromethyl-cyclopropyl)-phenyl]-acetamide]
0.12 | COc1ccc(Cn2ncc(NC(=O)Cc3ccc(N4CCCC4)nc3)n2)cc1 [Example 62, N-[2-(4-Methoxy-benzyl)-2H-[1,2,3]triazol-4-yl]-2-(6-pyrrolidin-1-yl-pyridin-3-yl)-acetamide]
0.23 | COc1cc(Cn2ncc(NC(=O)Cc3ccc(C4(C(F)(F)F)CC4)cc3)n2)ccc1F [Example 113, N-[2-(4-Fluoro-3-methoxy-benzyl)-2H-[1,2,3]triazol-4-yl]-2-[4-(1-trifluoromethyl-cyclopropyl)-phenyl]-acetamide]
0.04 | CCn1ncc2cc(CC(=O)Nc3cnn(Cc4ccc(C#N)c(C)c4)n3)ccc21 [Example 168, N-[2-(4-Cyano-3-methyl-benzyl)-2H-[1,2,3]triazol-4-yl]-2-(1-ethyl-1H-indazol-5-yl)-acetamide]
0.02 | Cc1ccc(Cn2ncc(NC(=O)Cc3ccc4c(cnn4C)c3)n2)cc1 [Example 69, N-[2-(4-Methyl-benzyl)-2H-[1,2,3]triazol-4-yl]-2-(1-methyl-1H-indazol-5-yl)-acetamide]
0.062 | COc1cc(Cn2ncc(NC(=O)Cc3ccc(C(C)(C)C)cc3)n2)ccc1F [Example 119, 2-(4-tert-Butyl-phenyl)-N-[2-(4-fluoro-3-methoxy-benzyl)-2H-[1,2,3]triazol-4-yl]-acetamide]
0.14 | COc1cc(Cn2ncc(NC(=O)Cc3ccc(C4(F)COC4)cc3)n2)ccc1F [Example 116, N-[2-(4-Fluoro-3-methoxy-benzyl)-2H-[1,2,3]triazol-4-yl]-2-[4-(3-fluoro-oxetan-3-yl)-phenyl]-acetamide]
0.026 | O=C(Cc1ccc(N2CCCC2)nc1)Nc1cnn(Cc2ccc(OC(F)F)c(F)c2)n1 [Example 183, N-[2-(4-Difluoromethoxy-3-fluoro-benzyl)-2H-[1,2,3]triazol-4-yl]-2-(6-pyrrolidin-1-yl-pyridin-3-yl)-acetamide]
0.87 | COc1ccc(Cn2ncc(NC(=O)Cc3ccc(OCC4(C)COC4)cc3)n2)cc1F [Example 123, N-[2-(3-Fluoro-4-methoxy-benzyl)-2H-[1,2,3]triazol-4-yl]-2-[4-(3-methyl-oxetan-3-ylmethoxy)-phenyl]-acetamide]
0.046 | O=C(Cc1ccc(C2COC2)cc1)Nc1cnn(Cc2ccc(F)c(F)c2)n1 [Example 23, N-[2-(3,4-Difluoro-benzyl)-2H-[1,2,3]triazol-4-yl]-2-(4-oxetan-3-yl-phenyl)-acetamide]
0.036 | Cc1cn(C)c2cc(CC(=O)Nc3cnn(Cc4ccc(C#N)cc4)n3)ccc12 [Example 106, N-[2-(4-Cyano-benzyl)-2H-[1,2,3]triazol-4-yl]-2-(1,3-dimethyl-1H-indol-6-yl)-acetamide]
0.032 | CCOc1ccc(Cn2ncc(NC(=O)Cc3ccc(N4CCCC4)nc3)n2)cc1 [Example 45, N-[2-(4-Ethoxy-benzyl)-2H-[1,2,3]triazol-4-yl]-2-(6-pyrrolidin-1-yl-pyridin-3-yl)-acetamide]
0.16 | COc1ccc(Cn2ncc(NC(=O)Cc3ccc(C(C)C)cc3)n2)cc1OC [Example 50, N-[2-(3,4-Dimethoxy-benzyl)-2H-[1,2,3]triazol-4-yl]-2-(4-isopropyl-phenyl)-acetamide]
0.11 | Cc1cc(Cn2ncc(NC(=O)Cc3ccc4c(cnn4C)c3)n2)ccc1C#N [Example 164, N-[2-(4-Cyano-3-methyl-benzyl)-2H-[1,2,3]triazol-4-yl]-2-(1-methyl-1H-indazol-5-yl)-acetamide]
